Drawing on patent publication US20240043404A1 (AbbVie Inc., priority 2009, published 2024), this text covers EC50 for seven molecules.

The structures appear in SMILES notation.

In one assay the test system is RS4;11 cells. Description: RS4;11 cell viability assay (CellTiter Glo).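 Also: acute lymphoblastic leukemia line RS4,11, EC50 derived from percentage of viable cells after treatment relative to untreated controls, cell killing taken as a measure of Bcl-2 inhibition.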 In kind it is cell-based, human. Particulars: 50,000 cells per well, 10% human serum, 48 hours; read-out: RS4; 11 EC50 Values. On the technique in general: ATP-based viability assays read luminescence as a measure of living cells.
Experimental: The acute lymphoblastic leukemia (ALL) cell line RS4;11 was used as the primary human cell line to assess the cellular activity of Bcl-2 selective agents in vitro and their efficacy in vivo.
Cell cytotoxicity EC50 values were assessed using CellTiter Glo (Promega) according to the manufacturer's recommendations. The EC50 values were determined as a percentage of viable cells following treatment compared to the untreated control cells.
In the case of `CC1(C)CCC(CN2CCN(c3ccc(C(=O)NS(=O)(=O)c4ccc(NCC56CC7CC(C5)C(O)C(C7)C6)c([N+](=O)[O-])c4)c(Oc4cnc5[nH]ccc5c4)c3)CC2)=C(c2ccc(Cl)cc2)C1` (stereo not shown) [Example 200, 4-(4-{[2-(4-chlorophenyl)-4,4-dimethylcyclohex-1-en-1-yl]methyl}piperazin-1-yl)-N-{[4-({[(Z)-4-hydroxy-1-adamantyl]methyl}amino)-3-nitrophenyl]sulfonyl}-2-(1H-pyrrolo[2,3-b]pyridin-5-yloxy)benzamide], the EC50 amounted to 11 nM.

Still in this assay, the particulars now being: Homo sapiens, RS4-11, 48 h, 50,000 cells per well, 10% human serum, 48 hours; read-out: RS4; 11 EC50 Values.
Consider `CC1(C)CCC(CN2CCN(c3ccc(C(=O)NS(=O)(=O)c4ccc(NCC5CN(C(CF)CF)C5)c([N+](=O)[O-])c4)c(Oc4cnc5[nH]ccc5c4)c3)CC2)=C(c2ccc(Cl)cc2)C1` [Example 161, 4-(4-{[2-(4-chlorophenyl)-4,4-dimethylcyclohex-1-en-1-yl]methyl}piperazin-1-yl)-N-({4-[({1-[2-fluoro-1-(fluoromethyl)ethyl]azetidin-3-yl}methyl)amino]-3-nitrophenyl}sulfonyl)-2-(1H-pyrrolo[2,3-b]pyridin-5-yloxy)benzamide], for which the EC50 is 34.6 nM.
As to `CC(=O)N1CCOC(CNc2ccc(S(=O)(=O)NC(=O)c3ccc(N4CCN(CC5=C(c6ccc(Cl)cc6)CC(C)(C)CC5)CC4)cc3Oc3cnc4[nH]ccc4c3)cc2[N+](=O)[O-])C1` (stereo not shown) [Example 136, N-[(4-{[(4-acetylmorpholin-2-yl)methyl]amino}-3-nitrophenyl)sulfonyl]-4-(4-{[2-(4-chlorophenyl)-4,4-dimethylcyclohex-1-en-1-yl]methyl}piperazin-1-yl)-2-(1H-pyrrolo[2,3-b]pyridin-5-yloxy)benzamide], the EC50 was 2.96 nM.
The same measure, in the same setting: under `CN(C)CC(=O)N1CCC(F)(COc2ncc(S(=O)(=O)NC(=O)c3ccc(N4CCN(CC5=C(c6ccc(Cl)cc6)CC(C)(C)CC5)CC4)cc3Oc3cnc4[nH]ccc4c3)cc2Cl)CC1` [Example 270, N-[(5-chloro-6-{[1-(N,N-dimethylglycyl)-4-fluoropiperidin-4-yl]methoxy}pyridin-3-yl)sulfonyl]-4-(4-{[2-(4-chlorophenyl)-4,4-dimethylcyclohex-1-en-1-yl]methyl}piperazin-1-yl)-2-(1H-pyrrolo[2,3-b]pyridin-5-yloxy)benzamide] stands 2.52 nM; under `CO[C@H]1CC[C@H](CNc2ccc(S(=O)(=O)NC(=O)c3ccc(N4CCN(CC5=C(c6ccc(Cl)cc6)CCC6(CCCC6)C5)CC4)cc3Oc3cnc4[nH]ccc4c3)cc2[N+](=O)[O-])CC1` [Example 74, Trans-4-(4-{[8-(4-chlorophenyl)spiro[4.5]dec-7-en-7-yl]methyl}piperazin-1-yl)-N-[(4-{[(4-methoxycyclohexyl)methyl]amino}-3-nitrophenyl)sulfonyl]-2-(1H-pyrrolo[2,3-b]pyridin-5-yloxy)benzamide], 57 nM; under `CC(C)N1CCC2(CCC(c3ccc(Cl)cc3)=C(CN3CCN(c4ccc(C(=O)NS(=O)(=O)c5ccc(NCC6CCOCC6)c([N+](=O)[O-])c5)c(Oc5cnc6[nH]ccc6c5)c4)CC3)C2)CC1` [Example 266, 4-(4-{[9-(4-chlorophenyl)-3-isopropyl-3-azaspiro[5.5]undec-8-en-8-yl]methyl}piperazin-1-yl)-N-({3-nitro-4-[(tetrahydro-2H-pyran-4-ylmethyl)amino]phenyl}sulfonyl)-2-(1H-pyrrolo[2,3-b]pyridin-5-yloxy)benzamide], 7.29 nM.
Still for that read-out and setting: in the case of `CC(=O)N1CCCC(CNc2ccc(S(=O)(=O)NC(=O)c3ccc(N4CCN(CC5=C(c6ccc(Cl)cc6)CC(C)(C)CC5)CC4)cc3Oc3cnc4[nH]ccc4c3)cc2[N+](=O)[O-])C1` (stereo not shown) [Example 148, N-[(4-{[(1-acetylpiperidin-3-yl)methyl]amino}-3-nitrophenyl)sulfonyl]-4-(4-{[2-(4-chlorophenyl)-4,4-dimethylcyclohex-1-en-1-yl]methyl}piperazin-1-yl)-2-(1H-pyrrolo[2,3-b]pyridin-5-yloxy)benzamide] it was 9.38 nM.
